Several values for one entry are separate records, joined by “and”; a condition that tells them apart may be missing. Equal values may be shown once. Inconclusive results and toxic doses are left out. No stated cut-off is given here; in the data, active means T/C of 150% or more; inactive means T/C below 125%.
Test system: L1210 leukemia ip in BDF1 mice, survival T/C
Experiment: NCI In Vivo Anticancer Drug Screen. Data for tumor model L1210 Leukemia (intraperitoneal) in B6D2F1 (BDF1) mice
Details: endpoint: mean survival time, higher = longer survival
Outline: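 Antitumor effect is assessed in tumor-bearing animals. Survival in the compound arm is compared with a vehicle-dosed control arm and expressed as their quotient.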

[1] = dose: 100.0 mg/kg/injection, schedule: Q01DX001 (ip), vehicle: saline
[2] = dose: 200.0 mg/kg/injection, schedule: Q01DX001 (ip), vehicle: saline
[3] = dose: 400.0 mg/kg/injection, schedule: Q01DX001 (ip), vehicle: saline
[4] = dose: 100.0 mg/kg/injection, schedule: Q01DX009 (ip), vehicle: saline
[5] = dose: 100.0 mg/kg/injection, schedule: Q04DX003 (ip), vehicle: Klucel (hydroxypropylcellulose) (HPC)
[6] = dose: 100.0 mg/kg/injection, schedule: Q01DX001 (ip), vehicle: Klucel (hydroxypropylcellulose) (HPC)
[7] = dose: 400.0 mg/kg/injection, schedule: Q01DX001 (ip), vehicle: Klucel (hydroxypropylcellulose) (HPC)
[8] = dose: 100.0 mg/kg/injection, schedule: Q01DX009 (ip), vehicle: saline with Tween-80
[9] = dose: 100.0 mg/kg/injection, schedule: Q04DX003 (ip), vehicle: saline with Tween-80
[10] = dose: 200.0 mg/kg/injection, schedule: Q01DX009 (ip), vehicle: saline with Tween-80
[11] = dose: 200.0 mg/kg/injection, schedule: Q04DX003 (ip), vehicle: saline with Tween-80
[12] = dose: 400.0 mg/kg/injection, schedule: Q04DX003 (ip), vehicle: saline with Tween-80
[13] = dose: 200.0 mg/kg/injection, schedule: Q04DX003 (ip), vehicle: Klucel (hydroxypropylcellulose) (HPC)
[14] = dose: 400.0 mg/kg/injection, schedule: Q04DX003 (ip), vehicle: Klucel (hydroxypropylcellulose) (HPC)
[15] = dose: 50.0 mg/kg/injection, schedule: Q04DX002 (ip), vehicle: Klucel (hydroxypropylcellulose) (HPC)
[16] = dose: 100.0 mg/kg/injection, schedule: Q04DX002 (ip), vehicle: Klucel (hydroxypropylcellulose) (HPC)
[17] = dose: 200.0 mg/kg/injection, schedule: Q04DX002 (ip), vehicle: Klucel (hydroxypropylcellulose) (HPC)
[18] = dose: 400.0 mg/kg/injection, schedule: Q04DX002 (ip), vehicle: Klucel (hydroxypropylcellulose) (HPC)
[19] = dose: 50.0 mg/kg/injection, schedule: Q01DX001 (ip), vehicle: carboxymethylcellulose (CMC)
[20] = dose: 100.0 mg/kg/injection, schedule: Q01DX001 (ip), vehicle: carboxymethylcellulose (CMC)
[21] = dose: 200.0 mg/kg/injection, schedule: Q01DX001 (ip), vehicle: carboxymethylcellulose (CMC)
[22] = dose: 400.0 mg/kg/injection, schedule: Q01DX001 (ip), vehicle: carboxymethylcellulose (CMC)
[23] = dose: 100.0 mg/kg/injection, schedule: Q01DX009 (ip), vehicle: Klucel (hydroxypropylcellulose) (HPC)
[24] = dose: 200.0 mg/kg/injection, schedule: Q01DX009 (ip), vehicle: Klucel (hydroxypropylcellulose) (HPC)

Measured: T/C

CNc1nc(Cl)cc2c1ncn2C1OC(CO)C(O)C1O (stereo not drawn)
inactive: dose: 100.0 mg/kg/injection, schedule: Q01DX005 (ip), vehicle: saline 100 % of control | dose: 200.0 mg/kg/injection, schedule: Q01DX005 (ip), vehicle: saline 100 % of control

CCOC(=O)C(C)(C)[Si](C)(C)C
inactive: dose: 50.0 mg/kg/injection, schedule: Q01DX001 (ip), vehicle: saline 97 % of control | [1] 103 % of control | [2] 97 % of control | [3] 97 % of control

OCCN(CCO)c1nnc(-c2ccccc2)o1
inactive: [1] 102 % of control | [2] 94 % of control and 90 % of control | [3] 101 % of control and 91 % of control

C=CCC1(CCC)C(=O)NC(=O)NC1=O
inactive: dose: 25.0 mg/kg/injection, schedule: Q01DX009 (ip), vehicle: saline 100 % of control | dose: 50.0 mg/kg/injection, schedule: Q01DX009 (ip), vehicle: saline 112 % of control | [4] 100 % of control | [5] 92 % of control

CC(C)CCC[C@@H](C)[C@H]1CC[C@H]2[C@@H]3CC[C@H]4C[C@H]5N[C@H]5C[C@]4(C)[C@H]3CC[C@]12C
inactive: [6] 93 % of control | [7] 90 % of control

CCCC[n+]1ccc(C#N)cc1
inactive: dose: 75.0 mg/kg/injection, schedule: Q01DX001 (ip), vehicle: saline 103 % of control | dose: 150.0 mg/kg/injection, schedule: Q01DX001 (ip), vehicle: saline 95 % of control

CCC(=O)OCC(C)([N+](=O)[O-])[N+](=O)[O-]
inactive: [8] 106 % of control | [9] 97 % of control | [10] 97 % of control | [11] 97 % of control | dose: 400.0 mg/kg/injection, schedule: Q01DX009 (ip), vehicle: saline with Tween-80 101 % of control | [12] 109 % of control

O=[N+]([O-])/C=C/c1ccco1
inactive: dose: 18.75 mg/kg/injection, schedule: Q04DX003 (ip), vehicle: saline with Tween-80 101 % of control | dose: 37.5 mg/kg/injection, schedule: Q04DX003 (ip), vehicle: saline with Tween-80 95 % of control | dose: 75.0 mg/kg/injection, schedule: Q04DX003 (ip), vehicle: saline with Tween-80 101 % of control

COc1cc(NC(=O)CC(C)=O)cc2c(C)cc(=O)[nH]c12
inactive: [6] 104 % of control | [5] 102 % of control | dose: 200.0 mg/kg/injection, schedule: Q01DX001 (ip), vehicle: Klucel (hydroxypropylcellulose) (HPC) 96 % of control | [13] 107 % of control | [7] 102 % of control | [14] 102 % of control

FC(F)(F)c1ccc(C=C2c3ccccc3-c3ccccc32)cc1
inactive: dose: 12.5 mg/kg/injection, schedule: Q04DX002 (ip), vehicle: Klucel (hydroxypropylcellulose) (HPC) 92 % of control | dose: 25.0 mg/kg/injection, schedule: Q04DX002 (ip), vehicle: Klucel (hydroxypropylcellulose) (HPC) 92 % of control | [15] 92 % of control

C[CH2][Sn]([I])([CH2]C)[CH2]C
inactive: dose: 1.56 mg/kg/injection, schedule: Q01DX009 (ip), vehicle: saline 92 % of control | dose: 3.13 mg/kg/injection, schedule: Q01DX009 (ip), vehicle: saline 94 % of control | dose: 6.25 mg/kg/injection, schedule: Q01DX009 (ip), vehicle: saline 89 % of control | dose: 25.0 mg/kg/injection, schedule: Q04DX002 (ip), vehicle: gum acacia 87 % of control

CC(C)CC(=O)CC(O)C(Cl)(Cl)Cl (stereo not drawn)
inactive: [15] 104 % of control | [16] 93 % of control | [17] 93 % of control | [18] 101 % of control

CCC/C=C(\C)C#CC1=CCCCC1
inactive: [19] 97 % of control | [20] 100 % of control | [21] 94 % of control | [22] 97 % of control

CC(=O)Oc1cc(C)c(OC(C)=O)c(C)c1C
inactive: dose: 25.0 mg/kg/injection, schedule: Q01DX009 (ip), vehicle: saline with Tween-80 108 % of control | dose: 25.0 mg/kg/injection, schedule: Q04DX003 (ip), vehicle: saline with Tween-80 92 % of control | dose: 50.0 mg/kg/injection, schedule: Q01DX009 (ip), vehicle: saline with Tween-80 103 % of control | dose: 50.0 mg/kg/injection, schedule: Q04DX003 (ip), vehicle: saline with Tween-80 94 % of control | [8] 96 % of control | [9] 100 % of control and 103 % of control

C=CCc1ccccc1OC
inactive: [8] 102 % of control | [10] 95 % of control

CC12CCc3oc(-c4ccccc4)cc3C1=CCCC2=O (stereo not drawn)
inactive: dose: 100.0 mg/kg/injection, schedule: Q01DX001 (ip), vehicle: saline with Tween-80 102 % of control | dose: 200.0 mg/kg/injection, schedule: Q01DX001 (ip), vehicle: saline with Tween-80 94 % of control | dose: 400.0 mg/kg/injection, schedule: Q01DX001 (ip), vehicle: saline with Tween-80 96 % of control

CN(C)S(=O)(=O)c1ccc(NC(=O)OC2CCCCCC2)cc1
inactive: [1] 91 % of control | [2] 94 % of control | [3] 91 % of control

CCOC(=O)/C=C1/Nc2cc(C)c(C)cc2NC1=O
inactive: [9] 91 % of control | [11] 89 % of control | [12] 94 % of control

O=C(O)c1ccnc(C(=O)O)c1
inactive: [4] 89 % of control | dose: 100.0 mg/kg/injection, schedule: Q04DX003 (ip), vehicle: saline sonified 98 % of control | dose: 200.0 mg/kg/injection, schedule: Q01DX009 (ip), vehicle: saline 93 % of control | dose: 200.0 mg/kg/injection, schedule: Q04DX003 (ip), vehicle: saline sonified 93 % of control | dose: 400.0 mg/kg/injection, schedule: Q01DX009 (ip), vehicle: saline 97 % of control | dose: 400.0 mg/kg/injection, schedule: Q04DX003 (ip), vehicle: saline sonified 92 % of control

CC1(C(=O)O)CC(Cl)=CCC1C(=O)O (stereo not drawn)
inactive: dose: 100.0 mg/kg/injection, schedule: Q01DX001 (ip), vehicle: steriod suspending solution 105 % of control | dose: 200.0 mg/kg/injection, schedule: Q01DX001 (ip), vehicle: steriod suspending solution 103 % of control | dose: 400.0 mg/kg/injection, schedule: Q01DX001 (ip), vehicle: steriod suspending solution 97 % of control

O=c1nc(NCCc2cnc[nH]2)nc(NCCc2cnc[nH]2)[nH]1
inactive: dose: 50.0 mg/kg/injection, schedule: Q01DX009 (ip), vehicle: Klucel (hydroxypropylcellulose) (HPC) 100 % of control | [23] 100 % of control | [24] 92 % of control

Cc1cc(C)c(NC(=O)c2cccc([N+](=O)[O-])c2C(=O)O)cc1C
inactive: [16] 105 % of control | [17] 96 % of control | [18] 108 % of control

CCOC(=O)/C(C#N)=C/c1cccn1Cc1ccc2c(c1)OCO2
inactive: dose: 25.0 mg/kg/injection, schedule: Q04DX002 (ip), vehicle: saline 101 % of control | dose: 50.0 mg/kg/injection, schedule: Q04DX002 (ip), vehicle: saline 105 % of control | dose: 100.0 mg/kg/injection, schedule: Q04DX002 (ip), vehicle: saline 105 % of control

O=C1C(=O)c2cc(Cl)ccc2-c2ccccc21
inactive: [19] 100 % of control | [20] 102 % of control | [21] 100 % of control | [22] 105 % of control

COc1ccc(C2CCc3cc4c(cc3/C2=N/OC(C)=O)OCO4)cc1OC (stereo not drawn)
inactive: [23] 105 % of control | [5] 102 % of control | [24] 97 % of control | [13] 101 % of control | dose: 400.0 mg/kg/injection, schedule: Q01DX009 (ip), vehicle: Klucel (hydroxypropylcellulose) (HPC) 92 % of control | [14] 101 % of control

O=[N+]([O-])c1ccc(N2CCN(c3cccc(C(F)(F)F)c3)CC2)c([N+](=O)[O-])c1
inactive: [9] 105 % of control | [11] 102 % of control | [12] 100 % of control

CC1=C(C)Cc2c(-c3ccc(Cl)cc3)oc(-c3ccc(Cl)cc3)c2C1
inactive: [5] 100 % of control | [13] 97 % of control | [14] 94 % of control

— PubChem BioAssay AID248 (DTP/NCI, 2004)
